Experiments:
C57BL/6 mice = conditions: morphine 5 mg/kg s.c. alone, 120 min
Source text: A. Experimental animals. C57BL/6 mice (6-8 weeks old) of both sexes were used. Mice were housed in groups on a 12-h light-dark cycle (6:00 am light cycle; 6:00 pm dark cycle) with food (Teklad Global 16% protein rodent diets; Envigo Inc., WI, USA) and water available ad libitum. Animal groups were compiled to ensure minimization of factors (e.g., weight, sex, and health). Mice were within 20-28 g in weight at start of all studies. All tested groups contained a control group and consisted of male and female mice. Males and females were tested on the same day but at different times so that they were not in the room at the same time. All the experiments were tested during the light cycle between 8:00 am and 3:00 pm to avoid any long-term disruption of sleep cycles. Mice were transferred to the behavioural testing room at least 45 min before the first test to acclimatize. Following behavioural evaluation, animals were killed by CO2 inhalation, followed by cervical dislocation and postmortem decapitation.
B. Drug treatments. […] The dose of YM-254890 for subcutaneous injection was taken from previous published studies. The dose of morphine selected for subcutaneous administration (2.5, 5 and 10 mg kg-1) is commonly used in mouse analgesia. For the combined administration of morphine and YM-254890 on thermal anti-nociception, YM-254890 was administered 10 min before the morphine. The latency of response was measured before injection of drugs (baseline latency response) and at different time intervals (post-treatment latency response) after drugs injection.
C. Intrathecal injections. Intrathecal (i.t.) administration was performed following the method described previously (Hylden J L et al. “Intrathecal morphine in mice: a new technique.” Eur J Pharmacol (1980) 67:313-316; Li D et al. “Direct Intrathecal Injection of Recombinant Adeno-associated Viruses in Adult Mice.” J Vis Exp (2019)) with slight modifications. All intrathecal injections were performed using a 25 μL Hamilton syringe with a 30-gauge needle. The injection volume was 5 μL for each mouse. […] Each solution was injected without injection cannulae. Intrathecal injections were made into the L5-L6 intervertebral space of unanesthetized mice. The flick of the tail was considered indicative of a successful i.t. administration.

DRG nociceptors = experiment: Whole cell patch-clamp recordings of acutely dissociated DRG nociceptors; assay type: cell-based, mouse
Procedure: F. Acutely dissociated dorsal root ganglion (DRG) Preparation. Male or female mice between 1 and 2 months of age were used for acute DRG isolations. […] Dissociated DRG cultures were prepared as previously described (Perner C et al. “Protocol for dissection and culture of murine dorsal root ganglia neurons to study neuropeptide release.” STAR Protoc (2021) 2:100333). Briefly, DRGs were dissected from 1- to 2-month-old mice in Hank's buffered salt solution (HBSS) and digested with Collagenase A and Dispase II for 25 min at 37° C., centrifuged at 200×g for 5 min, and washed with Dulbecco's modified Eagle's medium (DMEM) supplemented with 10% fetal bovine serum (FBS), glutamate, sodium pyruvate, 1% penicillin and 1% streptomycin. DRGs were then triturated in Neurobasal A medium supplemented with 10% FBS, 1% penicillin, 1% streptomycin, 1% GlutaMAX, 2% B27, […] nerve growth factor (NGF) and […] glial cell line-derived neurotrophic factor (GDNF). After plating on laminin-coated coverslips, cells were incubated at 37° C. overnight. Experiments were performed the day after dissection.
G. Whole cell patch-clamp recordings. Nociceptors were identified by physiological classification protocols (Petruska J C et al. “Subclassified acutely dissociated cells of rat DRG: histochemistry and patterns of capsaicin-, proton-, and ATP-activated currents.” J Neurophysiol (2000) 84:2365-2379) summarized in FIG. 10 and further by responsivity to morphine. Each experimental group consisted of 12-18 DRG recordings from three animals, 1-2 of which were female. Hyperpolarization-activated current (Ih) and kinetics of resulting transient currents were determined by stepping membrane potential from −60 to −110 mV for 500 ms in 10 mV increments (FIG. 10A). Outward currents were identified by first preconditioning membrane potential at −100 mV for 500 ms and then stepping from −60 to 40 mV in 20 mV increments for 200 ms (FIG. 10D). Inward current dynamics were determined by preconditioning at −80 mV and then stepping from −60 to 40 mV in 10 mV increments (FIG. 10G). A 6-s, 0- to 2-nA continuous ramp stimulation protocol was used to determine rheobase. Membrane capacitance (Cm), series resistance (Rs) and input resistance (Ri) were tested with a hyperpolarizing 10 mV pulse of 10 ms duration initially and at a 30 s interval throughout the recording period. Cells were recorded only if initial series resistance was ≤20 MΩ and excluded if Rs varied >20% while recording. Offline analysis identified clustering of a population n=30 with uniform morphine responsivity that was selected for further analysis, with basal parameters #SEM: Cm=27.31±4.72 pF, Ri=492±19.29 MQ, Ih=7.10±2.45 pA·pF−1, IA tau=8.39±0.41 ms and action potential (AP) tau=1.22±0.08 ms. K+ internal was used for all recordings, containing: 6 mM NaCl, 4 mM NaOH, 130 mM K-gluconate, 11 mM ethylene glycol-bis(β-aminoethyl ether)tetraacetic acid (EGTA), 1 mM CaCl2, 1 mM MgCl2, 10 mM N-(2-hydroxyethyl)piperazine-N′-(2-ethanesulphonic acid) (HEPES), 2 mM Na2ATP, and 0.2 mM Na2GTP 0.2, adjusted to pH 7.3-7.4 with HCl. External artificial CSF contained: 125 mM NaCl, 3 mM KCl, 1.2 mM KH2PO4, 1.2 mM MgSO4, 25 mM NaHCO3, 2 mM CaCl2), and 10 mM dextrose 10, adjusted to pH 7.3-7.4 with HCl.

CN1CC[C@]23c4c5ccc(O)c4O[C@H]2[C@@H](O)C=C[C@H]3[C@H]1C5 [morphine]
locomotion in open-field test (C57BL/6 mice): locomotor-sensitizing effect | rapidly inactivating A-type potassium currents (IA), voltage-step protocol 2 (DRG nociceptors; YM-254890 or morphine alone): significantly inhibited IA | AP amplitude, voltage-step protocol (DRG nociceptors; bath application alone: 100 nM YM or 1 μM morphine): moderately reduced AP amplitude | excitability of DRG nociceptors (rheobase, 0-2 nA ramp stimulation) (DRG nociceptors; bath application alone: 1 μM morphine or 100 nM YM): substantially decreased excitability
